“Also recorded” adds a separate entry of the source. Marks after values point to notes of the source that are not given here.
How the values were obtained:
Type in all cases: in vivo, human
[1] = system: Salt Taste in a Chicken Powder Solution; assay: Saltiness of chicken powder solution, DFR panel; details: chicken powder and sodium chloride in water, 5 ppm
Method: Panelists evaluated all samples in fully enclosed partitioned booths under white lights. Fizz NETWORK Software Acquisitions Biosystemes 2.478 was used for data collection. Each panelist was provided with filtered water for rinsing and instructed to follow a strict rinsing procedure. The rinsing protocol required panelists to rinse prior to tasting the first sample, and after tasting each sample.
Samples were evaluated using a Deviation from Reference (DFR) method. Panelists were given an identified reference labeled “000” and a coded sample simultaneously. The coded sample was either a blind, coded reference or a coded test sample. The panelists were instructed to taste the reference (000) first and mentally evaluate its SALTINESS intensity. Panelists were then instructed to taste and rate the coded sample's intensity for SALTINESS compared to the identified reference. Sample sets were given to the panelists in balanced, randomized order. A one-minute wait period was enforced between sample sets to reduce flavour carryover.
Panelists rated SALTINESS intensity difference from the reference using a 9-pt scale anchored with the following descriptors: (−4) Extremely less than Reference, (0) Same as Reference, (4) Extremely more than Reference. Number values were NOT shown on the scale. Statistical mean differences were calculated using one-way ANOVA using Fizz Calculations Biosystemes 2.478. […]

[2] = system: Saltiness of Cheese Sauce; assay: Cheese sauce (Ragu), expert tasters; details: 5 ppm solution, 1 ml (0.005 mg) between two 20 g portions
Method: Cheese sauce (Ragu®) was evaluated without and with a water based solution of 2-acetyl-butyrolactone and 4,6-dimethyl-alpha-pyrone at 5 ppm concentration. Five expert tasters consumed 20 g cheese sauce alone, then 1 ml of flavour modifying solution, and then again 20 g of cheese sauce.

[3] = system: Salt Taste in a Low Sodium Soy Sauce; assay: Low sodium soy sauce, expert tasters; details: 5 ppm solution, 1 ml (0.005 mg) between two 1 g soy sauce portions
Method: Low sodium soy sauce (Kikkoman's®) was evaluated without and with a water based solution of 2-acetyl-butyrolactone and 4-hydroxy-6-methyl-2-pyrone at 5 ppm concentration. Five expert tasters consumed 1 g low sodium soy sauce alone, then 1 ml of flavour modifying solution, and then again 1 g of the low sodium soy sauce.

[4] = system: Complexity and Body of Wine; assay: Wine, expert tasters; details: 5 ppm (each); vs Control
Method: Pantolactone (D-isomer) and mevalonolactone were added individually or as a mixture at 5 ppm each to wine.

[5] = system: umami taste perception (chicken broth); assay: Chicken broth, expert tasters; details: Campbell's chicken noodle soup broth 50:50 with water; 5 ppm (each); vs Control
Excerpt: Five expert tasters consumed the Control (chicken broth) and then chicken broth with either 5 ppm of pantolactone (D-isomer) or 5 ppm of mevalonolactone.

[6] = system: Heat Perception of Chili Extract Paste; assay: Heat perception of chili extract paste in water, expert tasters; details: 5 ppm
Method: Pantolactone (D-isomer) and mevalonolactone were added at 5 ppm to chili extract paste and dissolved in water.
The taste perception of the product without the flavour modifying composition (Control) was compared with the same product (Test) containing the flavour modifying composition. Four expert tasters consumed the chili extract paste solution alone and then the tasters consumed one of two different dilution formats (medium or hot) of the chili extract paste solution containing 5 ppm of either pantolactone (D-isomer) or mevalonolactone.

[7] = system: Saltiness and Salivation (cheese sauce); assay: Various levels of pantolactone (D-isomer) in cheese sauce, expert tasters; details: for Saltiness score: 1 = low up to 5 = high, Control 1
Excerpt: Five expert tasters consumed the Control and then samples comprising various levels of pantolactone (D-isomer). It was concluded that pantolactone (D-isomer) is clean tasting up to 10-12 ppm in cheese sauce.

[8] = system: Flavour Balance of a Tomato-Based Condiment; assay: Ketchup samples, expert panel; details: 5.4 ppm; vs Control (0.1% ethyl alcohol)
Method: Ketchup containing sucrose as the base sweetener in two different formulations and ketchup containing sucralose as the base sweetener in a third formulation were evaluated without (control) and with addition of pantolactone added at 5.4 ppm (test).

[9] = system: Sweetness of Rebaudioside-A; assay: Sweetness of Rebaudioside-A water solutions, expert tasters
Excerpt: The product containing either 25 or 250 ppm Reb-A without pantolactone (Control) is compared with the product containing pantolactone (D-isomer) added at either 5, 10 or 20 ppm as noted in Table 6.

[10] = system: Sweetness and Bitterness of Milk Chocolate; assay: Milk chocolate, expert testers; details: 5 ppm, vs Control
Excerpt: The taste perception of the product without the addition of flavour modification compostion (Control) was compared with the same product (Test) containing the flavour modifying composition.

[11] = system: Saltiness and Salivation (cheese sauce); assay: Mixtures of pantolactone, m-cresol and 3-n-propylphenol in cheese sauce, expert tasters
Excerpt: A number of combinations of Pantolactone, m-cresol and 3-n-propylphenol are noted in Table 15. Five expert tasters consumed the Control and then each of the treatments and recorded a score.

[12] = water, 25 ppm Reb-A, 20 ppm pantolactone (D-isomer)

With `CC1(C)COC(=O)C1O` (stereo not shown) [pantolactone, dihydro-3-hydroxy-4,4-dimethyl-2(3H)-furanone] the “difference in SALTINESS between Control and Variant” value ([1]; Control presented as the reference) was “significant difference” and the “difference in SALTINESS between Control and Variant” value ([1]; Variant presented as the reference) was “not a significant difference in SALTINESS”.
For `Cc1cc(C)oc(=O)c1` [4,6-dimethyl-alpha-pyrone], the “Cheese Sauce: taste observation” value [2] was “amplified saltiness; also recorded: Slightly amplified umami”.
`CC(=O)C1CCOC1=O` (stereo not shown) [2-acetyl-butyrolactone] was tested, and the “Cheese Sauce: taste observation” value [2] was “amplified saltiness; also recorded: Slightly amplified umami” and the “Kikkoman's Low Sodium Soy Sauce: taste observation” value [3] was “amplified saltiness; also recorded: slightly amplified saltiness”.
In the case of `C[C@@]1(O)CCOC(=O)C1` [mevalonolactone], the “perception of complexity and body, Box red wine - Vella Burgundy California Table Wine” value [4] is reported as “more complex and having more body”, the Observations [5] is reported as “amplify umami taste perception; also recorded: Enhanced umami; also recorded: Fatty from chicken fat” and the “perception of heat (conclusion)” value [6] is reported as “enhanced perception of fruitiness but no change in the perception of heat”.
`Cc1cc(O)cc(=O)o1` [4-hydroxy-6-methyl-2-pyrone] was tested, and the “Kikkoman's Low Sodium Soy Sauce: taste observation” value [3] was “amplified saltiness”.
With `CC1(C)COC(=O)C1O` (single isomer, unassigned) [pantolactone (D-isomer)] the Salivation effect ([7]; 0.54 ppm) was “no”, the Saltiness score ([7]; 0.54 ppm) was 1.8 and the Salivation effect ([7]; 2.7 ppm) was “yes”. The Saltiness score ([7]; 2.7 ppm) was 2.2, the Salivation effect ([7]; 5.4 ppm) was “yes” and the Saltiness score ([7]; 5.4 ppm) was 2.5. The Salivation effect ([7]; 10.8 ppm) was “yes”, the Saltiness score ([7]; 10.8 ppm) was 3 and the Salivation effect ([7]; 27 ppm) was “yes”. The Saltiness score ([7]; 27 ppm) was 3 **, the “perception of complexity and body, Box red wine - Vella Burgundy California Table Wine” value [4] was “more complex and having more body” and the “Observations Ketchup sucralose-based, Source #3” value [8] was “improved dramatically in all elements”. The “Observations Ketchup sucrose-based, Source #1” value [8] was “enhanced in a balanced way”, the “Observations Ketchup sucrose-based, Source #2” value [8] was “taste enhancement but not in a balanced way” and the “sweetness vs control sample” value ([9]; increasing levels added to 25 ppm Reb-A water solutions, up to 20 ppm) was “more sweetness than the control sample”. For the same compound, the perception of sweetness ([9]; increasing levels added to 250 ppm Reb-A water solutions) was “cleaner upfront perception of sweetness with less lingering taste”, the “Taster Observations Taster 1” value [9, 12] was “second sweetest” and the “Taster Observations Taster 2” value [9, 12] was “sweet like 10 ppm”. For the same compound, the Observations [5] was “amplify umami taste perception; also recorded: Fatty from chicken fat; also recorded: Enhanced umami”, the “perception of heat (conclusion)” value [6] was “lower perception of heat and less lingering of heat” and the “sweetness and bitterness perception, Hershey's Bliss Chocolate” value [10] was “perceived sweeter and less bitter”.
`CCCc1cccc(O)c1` [3-n-propylphenol] was tested, and the “conclusion on blends / components” value [11] was “effective, but exhibits flavour aroma character at slightly elevated levels”.
